Reference: patent publication US7939074B2, “Combination of an anti-EP-CAM antibody with a chemotherapeutic agent” (GlaxoSmithKline LLC, priority 1999, dated 2011)
Where a name gives a salt, the structure may show the parent alone.

What was measured:
[1] = tested on: Human colon adenocarcinoma (HT-29) tumours; assay: Localization of 177Lu-labelled humanised 323/A3 IgG4cys-TMT to HT-29 xenografts after drug pre-treatment; assay type: in vivo, female CD-1 nude mice; conditions: HT-29 xenograft mice; NAVELBINE 28 mg/kg i.v. or 5-FU 20 mg/kg i.p. on days 1 and 5; labelled antibody on day 6
Description: Human colon adenocarcinoma (HT-29) tumours were initiated by subcutaneous implantation into female CD-1 nude mice (Charles River). When the tumours reached 200-300 mg, animals were divided into groups of five. NAVELBINE® was injected intravenously at a dosage of 28 mg/kg on days 1 and 5. A control group was dosed with 5-fluorouracil (5-FU) intraperitoneally at 20 mg/kg on days 1 and 5. On day 6, humanised 323/A3 IgG4cys-TMT (a humanized monoclonal antibody chelator conjugate with specificity for the Ep-CAM antigen) was labelled with lutetium-177 and injected intravenously via the lateral tail vein. Each mouse received […]/2.09 μCi lutetium-177/0.2 ml injection. Blood, spleen, liver, lung, kidney, femur and tumour were harvested on days 1, 3 and 5 post-antibody for direct gamma counting (see FIG. 5 for results).

[2] = tested on: adenocarcinoma cells; assay: Cell cycle analysis (propidium iodide flow cytometry) of drug-exposed adenocarcinoma cell lines; assay type: cell-based, human; conditions: adenocarcinoma cell line; NVB 30 nM then CDDP 5 μM; TAX 80 nM then CPBDA 100 μM; interferons 100 U/ml; media control 6.3%
Description: (§1) Populations of PC-3 prostatic adenocarcinoma cells were evaluated for distribution in G0/G1, S, and G2/M phases of the cell cycle as well as Ep-CAM expression. Cells were gently trypsinized and mechanically detached from the culture flasks and resuspended in calcium and magnesium-free phosphate-buffered saline containing bovine serum albumin and NaN3. Exactly 2×10^5 cells were stained with FITC-323/A3 murine IgG antibody or FITC-murine IgG (control). Cells were fixed with cold paraformaldehyde, then permeabilized for DNA staining with Tween-20. Cellular DNA was stained with propidium iodide and RNase A. Listmode data were acquired on a FACScan flow cytometer (Becton Dickinson Immunocytometry Systems) equipped with a 488 nm laser using Cell Fit software. Cell cycle analysis was done using SOBR modelling (where possible, otherwise manual estimations were employed) on Cell Fit. Ep-CAM antigen expression as detected by 323/A3 binding was evaluated separately using histogram analysis in WINLIST™ (Verity Software House).
(§2) Subconfluent cells were exposed to NAVELBINE® or TAXOL® for up to 24 hours, then washed and exposed to cisplatin or carboplatin, respectively, overnight. Cells were exposed to 5FU for 24 hours, and for 2-5 days to the interferons. Cells were washed and cultured for another 2-5 days prior to analysis for antigen expression and cell cycle status as described in Example 1. Antigen expression was quantified by comparison of the binding of fluorescein-conjugated 323/A3 to cultured cells with binding to calibrated microbead standards.

[3] = tested on: Ep-CAM antigen on adenocarcinoma cells; assay: Quantification of Ep-CAM antigen expression by binding of fluorescein-conjugated 323/A3 versus calibrated microbead standards; assay type: cell-based, human; conditions: adenocarcinoma cells exposed to drugs, Example 2 / FIG. 2, versus media
Description: as §1, §2
The expression of Ep-CAM antigen was quantified on a variety of adenocarcinoma cell lines as well as primary cultures of normal human cells. Cultured subconfluent cells were exposed sequentially to media, or to 30 nM NAVELBINE® followed by 5 μM cisplatin (NVB+CDDP), or to 80 nM TAXOL® followed by 100 μM carboplatin (TAX+CPBDA). Cells were washed with media and cultured for another 2-5 days prior to analysis for antigen expression as described in Examples 1 and 2.

[4] = tested on: HT29 adenocarcinoma cells; assay: Binding of PANOREX to drug-treated HT29 cells; assay type: cell-based, human; conditions: 15 minute incubation with PANOREX after culture with drugs
Description: as §2
The binding of PANOREX®, a related murine monoclonal antibody with specificity for the Ep-CAM antigen, was evaluated after a 15 minute incubation with HT29 adenocarcinoma cells which had been cultured with NAVELBINE® plus Cisplatin or with TAXOL® as previously described. A significant increase (34%) in antibody binding was seen on the cells treated with NAVELBINE® plus Cisplatin; 82% of these cells were arrested in S or G2/M cycle phase compared to 21% of the control cells.

[5] = tested on: HT29 adenocarcinoma cells; assay: Cell cycle arrest in drug-treated HT29 cells; assay type: cell-based, human; conditions: HT29 cells cultured with drugs; control cells 21%
Description: as §1, with “Cellular DNA was stained with propidium iodide and RNase A. Listmode data were acquired on a FACScan flow cytometer (Becton Dickinson Immunocytometry Systems) equipped with a 488 nm laser using Cell Fit software. Cell cycle analysis was done using SOBR modelling (where possible, otherwise manual estimations were employed) on Cell Fit.” left out
Subconfluent cells were exposed to NAVELBINE® or TAXOL® for up to 24 hours, then washed and exposed to cisplatin or carboplatin, respectively, overnight. […] Antigen expression was quantified by comparison of the binding of fluorescein-conjugated 323/A3 to cultured cells with binding to calibrated microbead standards.
The binding of PANOREX®, a related murine monoclonal antibody with specificity for the Ep-CAM antigen, was evaluated after a 15 minute incubation with HT29 adenocarcinoma cells which had been cultured with NAVELBINE® plus Cisplatin or with TAXOL® as previously described. […]

CCC1=C[C@@H]2CN(C1)Cc1c([nH]c3ccccc13)[C@@](C(=O)OC)(c1cc3c(cc1OC)N(C)[C@H]1[C@@](O)(C(=O)OC)[C@H](OC(C)=O)[C@]4(CC)C=CCN5CC[C@]31[C@@H]54)C2 (relative stereo) [NAVELBINE®, 3′,4′-didehydro-4′-deoxy-C′-norvincaleukoblastine [R-(R*,R*)-2,3-dihydroxybutanedioate (1:2)(salt)]]
antibody targeting to Ep-CAM positive tumours [1]: increases antibody targeting

O=c1[nH]cc(F)c(=O)[nH]1 [5FU, 5-Fluorouracil]
cells in S and G2/M phases combined [2]: 7.9% | Ep-CAM antigen expression [3]: not significantly increased

CC(=O)O[C@H]1C(=O)[C@@]2(C)[C@H]([C@H](OC(=O)c3ccccc3)[C@]3(O)C[C@H](OC(=O)[C@H](O)[C@@H](NC(=O)c4ccccc4)c4ccccc4)C(C)=C1C3(C)C)[C@]1(OC(C)=O)CO[C@@H]1C[C@@H]2O [TAXOL®, 5β,20 epoxy-1,2α,4,7β,10β,13α-hexahydroxytax-11-en-9-one 4,10-diacetate 2-benzoate 13-ester with (2R,3S)-N-benzoyl-3-phenylisoserine]
increase in antibody binding (PANOREX) [4]: 8% | cells arrested in S or G2/M cycle phase [5]: 57%

IFN-α
cells in S and G2/M phases combined [2]: 12% | Ep-CAM antigen expression [3]: not significantly increased

IFN-γ: interferon-gamma, used at 100 U/ml
cells in S and G2/M phases combined [2]: 11.5% | Ep-CAM antigen expression [3]: not significantly increased
